From article PMC6271228, “Diethyl 2-(Phenylcarbamoyl)phenyl Phosphorothioates: Synthesis, Antimycobacterial Activity and Cholinesterase Inhibition” (Molecules, 2014)
Values after ≈ are worked out from the molar mass of the structure shown. Where two headings read alike, the source gives them in different places.

Tests used:
M. avium My 330/88 = test: microbe, parasite or virus in culture; format: cell-based, Mycobacterium avium; details: for MIC: Mycobacterium avium, 37 °C; for MIC values against M. avium: all MIC values (14 and 21 d)
[1] = tested on: nontuberculous mycobacteria (M. avium and M. kansasii); test: microbe, parasite or virus in culture; format: cell-based; details: Mycobacterium avium, M. avium and M. kansasii strains; read-out: MIC values against nontuberculous mycobacteria
BChE from equine serum = target: T1, BChE from equine serum (Equus caballus, UniProt P81908); test: BChE inhibition, modified Ellman's method; format: biochemical
T1 construct: butyrylcholinesterase from equine serum; from tissue; host or cells: equine serum
Source text: (§1) The ability of the tested compounds to inhibit AChE from electric eel (Electrophorus electricus L.) and BChE from equine serum was screened in vitro using modified Ellman’s method for the evaluation of cholinesterase activity. […] […]. These two standards were chosen due to their different structures. […]. The choice of these drugs with different mechanism of action can provide relevant results. All tested compounds expressed a good inhibitory activity with IC50s in low micromolar values.
(§2) The IC50 values were determined using the spectrophotometric Ellman’s method, which is a simple, rapid and direct method to determine the SH and -S-S- group content in proteins. This method is widely used for cholinesterase activity evaluation and screening of the efficiency of cholinesterase inhibitors. Cholinesterase activity is measured indirectly by quantifying the concentration of 5-thio-2-nitrobenzoic acid (TNB) ion formed in the reaction between the thiol reagent 5,5'-dithiobis-2-nitrobenzoic acid (DTNB) and thiocholine, a product of substrate hydrolysis by cholinesterase (i.e., acetylthiocholine, ATCh). All the tested compounds were dissolved in dimethyl sulfoxide (concentration 0.01 M) and then diluted in demineralised water (concentration 0.001 M and 0.0001 M). The Ellman’s method is slightly modified according to Zdrazilova et al.. Acetylcholinesterase was obtained from electric eel (Electrophorus electricus L.) and butyrylcholinesterase from equine serum.

AChE from electric eel = target: T2, AChE from electric eel (Electrophorus electricus, UniProt O42275); test: AChE inhibition, modified Ellman's method; format: biochemical, Electrophorus electricus L.
T2 construct: Acetylcholinesterase was obtained from electric eel (Electrophorus electricus L.); from tissue; host or cells: electric eel (Electrophorus electricus L.)
Source text: as §1, §2

[2] = tested on: Mycobacterium tuberculosis My 331/88 (H37Rv); test: microbe, parasite or virus in culture; format: cell-based
M. kansasii My 235/80 = test: microbe, parasite or virus in culture; format: cell-based, Mycobacterium kansasii; details: for MIC: Mycobacterium kansasii, 37 °C; for MICs for M. kansasii 235/80: all time points
[3] = tested on: M. kansasii 6509/96 (clinically isolated); test: microbe, parasite or virus in culture; format: cell-based; details: Mycobacterium kansasii, 37 °C
[4] = MY330/88, 336 h, 14 d, read-out: MIC M. avium 330/88 14 d
[5] = MY330/88, 504 h, 21 d, read-out: MIC M. avium 330/88 21 d
[6] = 336 h, 14 d, 37 °C, read-out: MIC Mtb 331/88 (H37Rv) 14 d
[7] = 504 h, 21 d, 37 °C, read-out: MIC Mtb 331/88 (H37Rv) 21 d
[8] = MY235/80, 168 h, 7 d, read-out: MIC M. kansasii 235/80 7 d
[9] = MY235/80, 336 h, 14 d, read-out: MIC M. kansasii 235/80 14 d
[10] = MY235/80, 504 h, 21 d, read-out: MIC M. kansasii 235/80 21 d
[11] = 168 h, 7 d, read-out: MIC M. kansasii 6509/96 7 d
[12] = 336 h, 14 d, read-out: MIC M. kansasii 6509/96 14 d
[13] = 504 h, 21 d, read-out: MIC M. kansasii 6509/96 21 d

T2 sequence (O42275 24-633): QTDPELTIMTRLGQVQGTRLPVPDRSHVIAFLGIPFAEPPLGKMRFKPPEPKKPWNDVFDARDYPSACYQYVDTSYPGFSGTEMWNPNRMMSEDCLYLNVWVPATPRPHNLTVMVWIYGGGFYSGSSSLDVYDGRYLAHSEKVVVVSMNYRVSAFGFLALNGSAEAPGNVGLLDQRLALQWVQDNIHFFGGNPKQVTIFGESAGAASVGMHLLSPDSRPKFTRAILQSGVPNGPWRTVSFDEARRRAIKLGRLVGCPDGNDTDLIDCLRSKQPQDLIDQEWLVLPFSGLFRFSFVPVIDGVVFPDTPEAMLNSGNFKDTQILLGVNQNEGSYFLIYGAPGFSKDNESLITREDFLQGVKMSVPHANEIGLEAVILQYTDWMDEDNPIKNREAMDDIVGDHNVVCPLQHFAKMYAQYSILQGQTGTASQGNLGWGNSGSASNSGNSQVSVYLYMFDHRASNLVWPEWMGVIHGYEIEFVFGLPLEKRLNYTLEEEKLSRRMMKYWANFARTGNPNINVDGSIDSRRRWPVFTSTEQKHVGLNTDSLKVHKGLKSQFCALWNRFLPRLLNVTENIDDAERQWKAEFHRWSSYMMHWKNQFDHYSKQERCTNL
T1 sequence (P81908 whole entry): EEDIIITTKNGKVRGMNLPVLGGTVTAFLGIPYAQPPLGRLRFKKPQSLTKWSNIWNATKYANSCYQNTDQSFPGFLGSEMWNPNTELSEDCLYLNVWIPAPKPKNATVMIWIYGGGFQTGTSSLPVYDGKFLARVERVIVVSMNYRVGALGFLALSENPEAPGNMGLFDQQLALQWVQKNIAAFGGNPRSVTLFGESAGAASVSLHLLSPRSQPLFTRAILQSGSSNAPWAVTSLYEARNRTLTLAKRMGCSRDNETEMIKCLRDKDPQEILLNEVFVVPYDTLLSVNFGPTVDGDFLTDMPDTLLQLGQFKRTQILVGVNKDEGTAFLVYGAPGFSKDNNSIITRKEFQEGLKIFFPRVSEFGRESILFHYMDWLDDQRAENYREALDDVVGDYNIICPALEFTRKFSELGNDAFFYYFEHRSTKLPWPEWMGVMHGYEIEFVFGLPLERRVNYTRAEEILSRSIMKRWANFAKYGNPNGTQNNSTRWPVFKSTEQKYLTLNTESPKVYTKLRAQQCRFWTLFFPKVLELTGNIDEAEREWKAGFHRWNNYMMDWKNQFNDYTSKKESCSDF

| SMILES | MIC (M. avium My 330/88; [4]) | MIC (M. avium My 330/88; [5]) | MIC values against M. avium (M. avium My 330/88) | MIC [1] | IC50 (BChE from equine serum) | IC50 (AChE from electric eel) | MIC [2, 6] | MIC [2, 7] | MIC (M. kansasii My 235/80; [8]) | MIC (M. kansasii My 235/80; [9]) | MIC (M. kansasii My 235/80; [10]) | MICs for M. kansasii 235/80 (M. kansasii My 235/80) | MIC [3, 11] | MIC [3, 12] | MIC [3, 13] | MIC ([2]; read-out: MIC against Mtb) |
| --- | --- | --- | --- | --- | --- | --- | --- | --- | --- | --- | --- | --- | --- | --- | --- | --- |
| CCOP(=S)(OCC)Oc1cc(Cl)ccc1C(=O)Nc1ccc(C(F)(F)F)cc1 [1zz, O-(5-Chloro-2-{[4-(trifluoromethyl)phenyl]carbamoyl}phenyl) O,O-diethyl phosphorothioate] | 62.5 µM (≈ 29.2 µg/mL) | 62.5 µM (≈ 29.2 µg/mL) | ≤ 250 µM | ≥ 16 µM | 18.3 ± 1 µM | 9.16 ± 0.17 µM | 8 µM (≈ 3.74 µg/mL) | 16 µM (≈ 7.49 µg/mL) | 16 µM (≈ 7.49 µg/mL) | 16 µM (≈ 7.49 µg/mL) | 16 µM (≈ 7.49 µg/mL) | ≤ 250 µM | 16 µM (≈ 7.49 µg/mL) | 32 µM (≈ 15 µg/mL) | 32 µM (≈ 15 µg/mL) |  |
| CCOP(=S)(OCC)Oc1ccc(Br)cc1C(=O)Nc1cccc(F)c1 [1f, O-{4-Bromo-2-[(3-fluorophenyl)carbamoyl]phenyl} O,O-diethyl phosphorothioate] | 250 µM (≈ 116 µg/mL) | 500 µM (≈ 231 µg/mL) |  |  | 12.2 µM | 12.7 ± 0.05 µM | 8 µM (≈ 3.7 µg/mL) | 16 µM (≈ 7.4 µg/mL) | 62.5 µM (≈ 28.9 µg/mL) | 250 µM (≈ 116 µg/mL) | 500 µM (≈ 231 µg/mL) |  | 62.5 µM (≈ 28.9 µg/mL) | 250 µM (≈ 116 µg/mL) | 250 µM (≈ 116 µg/mL) |  |
| CCOP(=S)(OCC)Oc1cc(Cl)ccc1C(=O)Nc1cccc(Cl)c1 [1s, O-{5-Chloro-2-[(3-chlorophenyl)carbamoyl]phenyl} O,O-diethyl phosphorothioate] | 125 µM (≈ 54.3 µg/mL) | 125 µM (≈ 54.3 µg/mL) | ≤ 250 µM |  | 12.5 ± 0.1 µM | 9.79 ± 0.2 µM | 16 µM (≈ 6.95 µg/mL) | 32 µM (≈ 13.9 µg/mL) | 32 µM (≈ 13.9 µg/mL) | 125 µM (≈ 54.3 µg/mL) | 125 µM (≈ 54.3 µg/mL) |  | 32 µM (≈ 13.9 µg/mL) | 62.5 µM (≈ 27.1 µg/mL) | 125 µM (≈ 54.3 µg/mL) |  |
| CCOP(=S)(OCC)Oc1ccc(Br)cc1C(=O)Nc1cccc(C(F)(F)F)c1 [1h, O-(4-Bromo-2-{[3-(trifluoromethyl)phenyl]carbamoyl}phenyl) O,O-diethyl phosphorothioate] | 125 µM (≈ 64 µg/mL) | 125 µM (≈ 64 µg/mL) | ≤ 250 µM |  | 20 ± 0.5 µM | 13 ± 0.02 µM | 8 µM (≈ 4.1 µg/mL) | 8 µM (≈ 4.1 µg/mL) | 32 µM (≈ 16.4 µg/mL) | 62.5 µM (≈ 32 µg/mL) | 125 µM (≈ 64 µg/mL) | ≤ 250 µM | 32 µM (≈ 16.4 µg/mL) | 62.5 µM (≈ 32 µg/mL) | 125 µM (≈ 64 µg/mL) | 8 µM (≈ 4.1 µg/mL) |
| CCOP(=S)(OCC)Oc1ccc(Br)cc1C(=O)Nc1cccc(Br)c1 [1d] | 125 µM (≈ 65.4 µg/mL) | 125 µM (≈ 65.4 µg/mL) | ≤ 250 µM |  | 20 ± 0.2 µM | 11.3 ± 0.05 µM | 16 µM (≈ 8.37 µg/mL) | 16 µM (≈ 8.37 µg/mL) | 125 µM (≈ 65.4 µg/mL) | 125 µM (≈ 65.4 µg/mL) | 125 µM (≈ 65.4 µg/mL) | ≤ 250 µM | 125 µM (≈ 65.4 µg/mL) | 125 µM (≈ 65.4 µg/mL) | 125 µM (≈ 65.4 µg/mL) |  |
| CCOP(=S)(OCC)Oc1ccc(Cl)cc1C(=O)Nc1ccc(F)cc1 [1p, O-{4-Chloro-2-[(4-fluorophenyl)carbamoyl]phenyl} O,O-diethyl phosphorothioate] | 500 µM (≈ 209 µg/mL) | 500 µM (≈ 209 µg/mL) |  |  | 14.9 ± 0.8 µM | 13.6 ± 1.1 µM | 16 µM (≈ 6.69 µg/mL) | 16 µM (≈ 6.69 µg/mL) | 250 µM (≈ 104 µg/mL) | 500 µM (≈ 209 µg/mL) | > 500 µM |  | 125 µM (≈ 52.2 µg/mL) | 250 µM (≈ 104 µg/mL) | 500 µM (≈ 209 µg/mL) |  |
| CCOP(=S)(OCC)Oc1ccc(Br)cc1C(=O)Nc1cccc(Cl)c1 [1a, O-{4-Bromo-2-[(3-chlorophenyl)carbamoyl]phenyl} O,O-diethyl phosphorothioate] | 500 µM (≈ 239 µg/mL) | > 500 µM |  |  | 13.9 ± 0.05 µM | 12.6 ± 0.05 µM | 8 µM (≈ 3.83 µg/mL) | 16 µM (≈ 7.66 µg/mL) | 125 µM (≈ 59.8 µg/mL) | 500 µM (≈ 239 µg/mL) | 500 µM (≈ 239 µg/mL) |  | 125 µM (≈ 59.8 µg/mL) | 500 µM (≈ 239 µg/mL) | 500 µM (≈ 239 µg/mL) |  |
| CCOP(=S)(OCC)Oc1cc(Cl)ccc1C(=O)Nc1cccc(F)c1 [1x, O-{5-Chloro-2-[(3-fluorophenyl)carbamoyl]phenyl} O,O-diethyl phosphorothioate] | 250 µM (≈ 104 µg/mL) | 250 µM (≈ 104 µg/mL) |  |  | 8.68 ± 0.54 µM | 8.04 ± 0.27 µM | 16 µM (≈ 6.69 µg/mL) | 32 µM (≈ 13.4 µg/mL) | 32 µM (≈ 13.4 µg/mL) | 125 µM (≈ 52.2 µg/mL) | 250 µM (≈ 104 µg/mL) |  | 32 µM (≈ 13.4 µg/mL) | 125 µM (≈ 52.2 µg/mL) | 250 µM (≈ 104 µg/mL) |  |
| CCOP(=S)(OCC)Oc1ccc(Br)cc1C(=O)Nc1ccc(F)cc1 [1g, O-{4-Bromo-2-[(4-fluorophenyl)carbamoyl]phenyl} O,O-diethyl phosphorothioate] | 500 µM (≈ 231 µg/mL) | > 500 µM |  |  | 12.6 ± 0.3 µM | 12.4 ± 0.05 µM | 32 µM (≈ 14.8 µg/mL) | 32 µM (≈ 14.8 µg/mL) | 125 µM (≈ 57.8 µg/mL) | 500 µM (≈ 231 µg/mL) | > 500 µM |  | 125 µM (≈ 57.8 µg/mL) | 250 µM (≈ 116 µg/mL) | 250 µM (≈ 116 µg/mL) |  |
| CCOP(=S)(OCC)Oc1ccc(Cl)cc1C(=O)Nc1cccc(Cl)c1 [1j, O-{4-Chloro-2-[(3-chlorophenyl)carbamoyl]phenyl} O,O-diethyl phosphorothioate] | > 500 µM | > 500 µM |  |  | 14.8 ± 0.15 µM | 9.97 ± 0.24 µM | 32 µM (≈ 13.9 µg/mL) | 62.5 µM (≈ 27.1 µg/mL) | 250 µM (≈ 109 µg/mL) | 250 µM (≈ 109 µg/mL) | 500 µM (≈ 217 µg/mL) |  | 250 µM (≈ 109 µg/mL) | 500 µM (≈ 217 µg/mL) | 500 µM (≈ 217 µg/mL) |  |
| CCOP(=S)(OCC)Oc1ccc(Cl)cc1C(=O)Nc1cccc(F)c1 [1o, O-{4-Chloro-2-[(3-fluorophenyl)carbamoyl]phenyl} O,O-diethyl phosphorothioate] | 500 µM (≈ 209 µg/mL) | 500 µM (≈ 209 µg/mL) |  |  | 11.8 ± 0.6 µM | 9.94 ± 0.2 µM | 32 µM (≈ 13.4 µg/mL) | 32 µM (≈ 13.4 µg/mL) | 250 µM (≈ 104 µg/mL) | 500 µM (≈ 209 µg/mL) | > 500 µM |  | 250 µM (≈ 104 µg/mL) | 500 µM (≈ 209 µg/mL) | 500 µM (≈ 209 µg/mL) |  |
| CCOP(=S)(OCC)Oc1ccc(Br)cc1C(=O)Nc1ccc(C(F)(F)F)cc1 [1i, O-(4-Bromo-2-{[4-(trifluoromethyl)phenyl]carbamoyl}phenyl) O,O-diethyl phosphorothioate] | 125 µM (≈ 64 µg/mL) | 125 µM (≈ 64 µg/mL) | ≤ 250 µM |  | 20.2 ± 1.6 µM | 11.2 ± 0.02 µM | 8 µM (≈ 4.1 µg/mL) | 8 µM (≈ 4.1 µg/mL) | 32 µM (≈ 16.4 µg/mL) | 62.5 µM (≈ 32 µg/mL) | 125 µM (≈ 64 µg/mL) | ≤ 250 µM | 32 µM (≈ 16.4 µg/mL) | 62.5 µM (≈ 32 µg/mL) | 125 µM (≈ 64 µg/mL) | 8 µM (≈ 4.1 µg/mL) |
| CCOP(=S)(OCC)Oc1cc(Cl)ccc1C(=O)Nc1ccc(Cl)c(Cl)c1 [1u, O-{5-Chloro-2-[(3,4-dichlorophenyl)carbamoyl]phenyl} O,O-diethyl phosphorothioate] | > 500 µM | > 500 µM |  |  | 14.7 ± 0.2 µM | 9.56 ± 0.21 µM | 16 µM (≈ 7.5 µg/mL) | 16 µM (≈ 7.5 µg/mL) | 32 µM (≈ 15 µg/mL) | 32 µM (≈ 15 µg/mL) | 32 µM (≈ 15 µg/mL) |  | 32 µM (≈ 15 µg/mL) | 62.5 µM (≈ 29.3 µg/mL) | 62.5 µM (≈ 29.3 µg/mL) |  |
